{
  "source": "ChEMBL document CHEMBL1649565",
  "about": "“Besifloxacin, a novel fluoroquinolone, has broad-spectrum in vitro activity against aerobic and anaerobic bacteria” (Antimicrob Agents Chemother, 2009)",
  "key": {"[1]": {"tested_on": "Enterococcus faecalis", "experiment": "Antibacterial activity against vancomycin- resistant Enterococcus faecalis by CLSI M100-S18 method", "format": "functional"}, "[2]": {"tested_on": "Enterococcus faecium", "experiment": "Antibacterial activity against vancomycin- resistant Enterococcus faecium by CLSI M100-S18 method", "format": "functional"}, "[3]": {"tested_on": "Listeria monocytogenes", "experiment": "Antibacterial activity against Listeria monocytogenes by CLSI M100-S18 method", "format": "functional"}, "[4]": {"tested_on": "Staphylococcus aureus", "experiment": "Antibacterial activity against ciprofloxacin-susceptible and methicillin-resistant Staphylococcus aureus by CLSI M100-S18 method", "format": "functional"}, "[5]": {"tested_on": "Staphylococcus hominis", "experiment": "Antibacterial activity against Staphylococcus hominis by CLSI M100-S18 method", "format": "functional"}, "[6]": {"tested_on": "Staphylococcus lugdunensis", "experiment": "Antibacterial activity against Staphylococcus lugdunensis by CLSI M100-S18 method", "format": "functional"}, "[7]": {"tested_on": "Streptococcus pneumoniae", "experiment": "Antibacterial activity against non-levofloxacin susceptible Streptococcus pneumoniae by CLSI M100-S18 method", "format": "functional"}, "[8]": {"tested_on": "Streptococcus anginosus", "experiment": "Antibacterial activity against Streptococcus anginosus by CLSI M100-S18 method", "format": "functional"}, "[9]": {"tested_on": "Streptococcus mitis", "experiment": "Antibacterial activity against Streptococcus mitis by CLSI M100-S18 method", "format": "functional"}, "[10]": {"tested_on": "Citrobacter koseri", "experiment": "Antibacterial activity against Citrobacter koseri by CLSI M7-A7 method", "format": "functional"}, "[11]": {"tested_on": "Klebsiella aerogenes", "experiment": "Antibacterial activity against Enterobacter aerogenes by CLSI M7-A7 method", "format": "functional"}, "[12]": {"tested_on": "Haemophilus influenzae", "experiment": "Antibacterial activity against ciprofloxacin-susceptible Haemophilus influenzae by CLSI M7-A7 method", "format": "functional"}, "[13]": {"tested_on": "Haemophilus influenzae", "experiment": "Antibacterial activity against non-ciprofloxacin-susceptible Haemophilus influenzae by CLSI M7-A7 method", "format": "functional"}, "[14]": {"tested_on": "Klebsiella oxytoca", "experiment": "Antibacterial activity against Klebsiella oxytoca by CLSI M7-A7 method", "format": "functional"}, "[15]": {"tested_on": "Legionella pneumophila", "experiment": "Antibacterial activity against Legionella pneumophila by CLSI M7-A7 method", "format": "functional"}, "[16]": {"tested_on": "Neisseria meningitidis", "experiment": "Antibacterial activity against Neisseria meningitidis by CLSI M7-A7 method", "format": "functional"}, "[17]": {"tested_on": "Proteus vulgaris", "experiment": "Antibacterial activity against Proteus vulgaris by CLSI M7-A7 method", "format": "functional"}, "[18]": {"tested_on": "Pseudomonas aeruginosa", "experiment": "Antibacterial activity against ciprofloxacin-susceptible Pseudomonas aeruginosa by CLSI M7-A7 method", "format": "functional"}, "[19]": {"tested_on": "Pseudomonas aeruginosa", "experiment": "Antibacterial activity against non-ciprofloxacin-susceptible Pseudomonas aeruginosa by CLSI M7-A7 method", "format": "functional"}, "[20]": {"tested_on": "Enterococcus faecalis", "experiment": "Antibacterial activity against vancomycin- resistant Enterococcus faecalis assessed as percent susceptible isolates by CLSI M100-S18 method", "format": "functional"}, "[21]": {"tested_on": "Staphylococcus lugdunensis", "experiment": "Antibacterial activity against Staphylococcus lugdunensis assessed as percent susceptible isolates by CLSI M100-S18 method", "format": "functional"}, "[22]": {"tested_on": "Streptococcus pneumoniae", "experiment": "Antibacterial activity against non-levofloxacin susceptible Streptococcus pneumoniae assessed as percent susceptible isolates by CLSI M100-S18 method", "format": "functional"}, "[23]": {"tested_on": "Acinetobacter baumannii", "experiment": "Antibacterial activity against Acinetobacter baumannii assessed as percent susceptible isolates by CLSI M7-A7 method", "format": "functional"}, "[24]": {"tested_on": "Acinetobacter calcoaceticus", "experiment": "Antibacterial activity against Acinetobacter calcoaceticus assessed as percent susceptible isolates by CLSI M7-A7 method", "format": "functional"}, "[25]": {"tested_on": "Acinetobacter lwoffii", "experiment": "Antibacterial activity against Acinetobacter lwoffii assessed as percent susceptible isolates by CLSI M7-A7 method", "format": "functional"}, "[26]": {"tested_on": "Citrobacter freundii", "experiment": "Antibacterial activity against Citrobacter freundii assessed as percent susceptible isolates by CLSI M7-A7 method", "format": "functional"}, "[27]": {"tested_on": "Haemophilus influenzae", "experiment": "Antibacterial activity against non-ciprofloxacin-susceptible Haemophilus influenzae assessed as percent susceptible isolates by CLSI M7-A7 method", "format": "functional"}, "[28]": {"tested_on": "Moraxella catarrhalis", "experiment": "Antibacterial activity against Moraxella catarrhalis assessed as percent susceptible isolates by CLSI M7-A7 method", "format": "functional"}, "[29]": {"tested_on": "Neisseria meningitidis", "experiment": "Antibacterial activity against Neisseria meningitidis assessed as percent susceptible isolates by CLSI M7-A7 method", "format": "functional"}, "[30]": {"tested_on": "Pseudomonas aeruginosa", "experiment": "Antibacterial activity against ciprofloxacin-susceptible Pseudomonas aeruginosa assessed as percent susceptible isolates by CLSI M7-A7 method", "format": "functional"}, "[31]": {"tested_on": "Pseudomonas aeruginosa", "experiment": "Antibacterial activity against non-ciprofloxacin-susceptible Pseudomonas aeruginosa assessed as percent susceptible isolates by CLSI M7-A7 method", "format": "functional"}, "[32]": {"tested_on": "Stenotrophomonas maltophilia", "experiment": "Antibacterial activity against non-levofloxacin susceptible Stenotrophomonas maltophilia assessed as percent susceptible isolates by CLSI M7-A7 method", "format": "functional"}, "[33]": {"tested_on": "Stenotrophomonas maltophilia", "experiment": "Antibacterial activity against levofloxacin-susceptible Stenotrophomonas maltophilia assessed as assessed as percent susceptible isolates by CLSI M7-A7 method", "format": "functional"}, "[34]": {"tested_on": "Staphylococcus epidermidis"}},
  "note": "Calls of active or inactive are those of the source. No cut-off for these calls is given here.",
  "data": [
    {"molecule": "C[C@H]1COc2c(N3CCN(C)CC3)c(F)cc3c(=O)c(C(=O)O)cn1c23.C[C@H]1COc2c(N3CCN(C)CC3)c(F)cc3c(=O)c(C(=O)O)cn1c23.O", "note": "[LEVOFLOXACIN]", "values": [
      {"measurement": "MIC50", "setting": "[1]", "result": 1, "unit": "µg/mL"},
      {"measurement": "MIC90", "setting": "[1]", "result": 64, "unit": "µg/mL"},
      {"measurement": "MIC50", "setting": "[2]", "result": 32, "unit": "µg/mL"},
      {"measurement": "MIC90", "setting": "[2]", "result": 128, "unit": "µg/mL"},
      {"measurement": "MIC50", "setting": "[3]", "result": 0.5, "unit": "µg/mL"},
      {"measurement": "MIC90", "setting": "[3]", "result": 1, "unit": "µg/mL"},
      {"measurement": "MIC50", "setting": "[4]", "result": 0.12, "unit": "µg/mL"},
      {"measurement": "MIC90", "setting": "[4]", "result": 0.25, "unit": "µg/mL"},
      {"measurement": "MIC50", "setting": "[5]", "result": 8, "unit": "µg/mL"},
      {"measurement": "MIC90", "setting": "[5]", "result": "> 8", "unit": "µg/mL"},
      {"measurement": "MIC50", "setting": "[6]", "result": 0.25, "unit": "µg/mL"},
      {"measurement": "MIC90", "setting": "[6]", "result": "> 8", "unit": "µg/mL"},
      {"measurement": "MIC50", "setting": "[7]", "result": 16, "unit": "µg/mL"},
      {"measurement": "MIC90", "setting": "[7]", "result": 16, "unit": "µg/mL"},
      {"measurement": "MIC50", "setting": "[8]", "result": 1, "unit": "µg/mL"},
      {"measurement": "MIC90", "setting": "[8]", "result": 1, "unit": "µg/mL"},
      {"measurement": "MIC50", "setting": "[9]", "result": 1, "unit": "µg/mL"},
      {"measurement": "MIC90", "setting": "[9]", "result": 4, "unit": "µg/mL"},
      {"measurement": "MIC50", "setting": "[10]", "result": 0.03, "unit": "µg/mL"},
      {"measurement": "MIC90", "setting": "[10]", "result": 0.12, "unit": "µg/mL"},
      {"measurement": "MIC50", "setting": "[11]", "result": 0.06, "unit": "µg/mL"},
      {"measurement": "MIC90", "setting": "[11]", "result": 16, "unit": "µg/mL"},
      {"measurement": "MIC50", "setting": "[12]", "result": 0.015, "unit": "µg/mL"},
      {"measurement": "MIC90", "setting": "[12]", "result": 0.015, "unit": "µg/mL"},
      {"measurement": "MIC50", "setting": "[13]", "result": 8, "unit": "µg/mL"},
      {"measurement": "MIC90", "setting": "[13]", "result": 16, "unit": "µg/mL"},
      {"measurement": "MIC50", "setting": "[14]", "result": 0.03, "unit": "µg/mL"},
      {"measurement": "MIC90", "setting": "[14]", "result": 0.5, "unit": "µg/mL"},
      {"measurement": "MIC50", "setting": "[15]", "result": 0.03, "unit": "µg/mL"},
      {"measurement": "MIC90", "setting": "[15]", "result": 0.03, "unit": "µg/mL"},
      {"measurement": "MIC50", "setting": "[16]", "result": 0.008, "unit": "µg/mL"},
      {"measurement": "MIC90", "setting": "[16]", "result": 0.015, "unit": "µg/mL"},
      {"measurement": "MIC50", "setting": "[17]", "result": 0.03, "unit": "µg/mL"},
      {"measurement": "MIC90", "setting": "[17]", "result": 0.06, "unit": "µg/mL"},
      {"measurement": "MIC50", "setting": "[18]", "result": 0.5, "unit": "µg/mL"},
      {"measurement": "MIC90", "setting": "[18]", "result": 1, "unit": "µg/mL"},
      {"measurement": "MIC50", "setting": "[19]", "result": 16, "unit": "µg/mL"},
      {"measurement": "MIC90", "setting": "[19]", "result": 64, "unit": "µg/mL"},
      {"measurement": "Activity", "setting": "[20]", "result": 58.5, "unit": "%"},
      {"measurement": "Activity", "setting": "[21]", "result": 66.7, "unit": "%"},
      {"measurement": "Activity", "setting": "[22]", "result": 0, "unit": "%"},
      {"measurement": "Activity", "setting": "[23]", "result": 37.7, "unit": "%"},
      {"measurement": "Activity", "setting": "[24]", "result": 66.7, "unit": "%"},
      {"measurement": "Activity", "setting": "[25]", "result": 86, "unit": "%"},
      {"measurement": "Activity", "setting": "[26]", "result": 90, "unit": "%"},
      {"measurement": "Activity", "setting": "[27]", "result": 27.3, "unit": "%"},
      {"measurement": "Activity", "setting": "[28]", "result": 100, "unit": "%"},
      {"measurement": "Activity", "setting": "[29]", "result": 100, "unit": "%"},
      {"measurement": "Activity", "setting": "[30]", "result": 96.2, "unit": "%"},
      {"measurement": "Activity", "setting": "[31]", "result": 1, "unit": "%"},
      {"measurement": "Activity", "setting": "[32]", "result": 100, "unit": "%"},
      {"measurement": "Activity", "setting": "[33]", "result": 0, "unit": "%"},
      {"measurement": "MIC90", "setting": "[34]", "result": "inactive"}
    ]}
  ]
}
